Experimental findings from ChEMBL document CHEMBL1139599, “Benzothieno[3,2-b]indole derivatives as potent selective estrogen receptor modulators” (Bioorg Med Chem Lett, 2005) are described below.

Assay [1] deals with Estrogen receptor beta (Homo sapiens, UniProt Q92731). In words: Inhibition of [3H]17-beta-estradiol binding to human estrogen receptor beta.
The target in assay [2] is T1, Estrogen receptor (Homo sapiens, UniProt P03372).
T1 sequence (P03372 whole entry): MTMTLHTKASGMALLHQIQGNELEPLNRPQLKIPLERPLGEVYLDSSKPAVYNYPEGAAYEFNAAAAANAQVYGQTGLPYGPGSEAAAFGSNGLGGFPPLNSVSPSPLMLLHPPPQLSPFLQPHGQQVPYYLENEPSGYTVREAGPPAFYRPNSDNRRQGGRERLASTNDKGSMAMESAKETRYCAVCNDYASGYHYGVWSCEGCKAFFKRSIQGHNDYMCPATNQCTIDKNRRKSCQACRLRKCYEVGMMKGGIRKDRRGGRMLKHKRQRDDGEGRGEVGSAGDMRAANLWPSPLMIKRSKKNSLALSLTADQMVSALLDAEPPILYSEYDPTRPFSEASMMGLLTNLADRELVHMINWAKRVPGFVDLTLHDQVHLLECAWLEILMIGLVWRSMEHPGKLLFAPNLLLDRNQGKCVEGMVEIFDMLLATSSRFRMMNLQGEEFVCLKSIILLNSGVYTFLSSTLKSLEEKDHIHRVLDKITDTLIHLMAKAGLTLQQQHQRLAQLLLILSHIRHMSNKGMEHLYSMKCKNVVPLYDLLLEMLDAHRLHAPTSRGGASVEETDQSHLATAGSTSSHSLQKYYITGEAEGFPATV
The assay is described as follows: Inhibition of [3H]17-beta-estradiol binding to human estrogen receptor alpha.

The target in assay [3] is T2, Estrogen receptor (Mus musculus) (UniProt O08537+P19785). The following applies: Uterus.
T2 sequence (O08537 whole entry, looked up): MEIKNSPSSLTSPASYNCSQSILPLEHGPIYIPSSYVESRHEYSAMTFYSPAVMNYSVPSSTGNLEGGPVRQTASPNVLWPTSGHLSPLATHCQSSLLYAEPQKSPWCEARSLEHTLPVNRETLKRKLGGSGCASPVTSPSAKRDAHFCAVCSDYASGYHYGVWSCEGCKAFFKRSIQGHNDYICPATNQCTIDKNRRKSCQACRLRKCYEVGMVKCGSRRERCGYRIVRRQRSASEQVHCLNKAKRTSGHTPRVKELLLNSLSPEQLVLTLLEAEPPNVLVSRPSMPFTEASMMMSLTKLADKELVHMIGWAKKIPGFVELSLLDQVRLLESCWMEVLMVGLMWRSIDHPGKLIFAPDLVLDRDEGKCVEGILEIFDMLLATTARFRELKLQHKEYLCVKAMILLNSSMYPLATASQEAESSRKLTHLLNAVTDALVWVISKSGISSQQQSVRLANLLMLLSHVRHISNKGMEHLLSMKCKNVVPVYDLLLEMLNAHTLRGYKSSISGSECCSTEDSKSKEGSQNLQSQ
T2 sequence (P19785 whole entry, looked up): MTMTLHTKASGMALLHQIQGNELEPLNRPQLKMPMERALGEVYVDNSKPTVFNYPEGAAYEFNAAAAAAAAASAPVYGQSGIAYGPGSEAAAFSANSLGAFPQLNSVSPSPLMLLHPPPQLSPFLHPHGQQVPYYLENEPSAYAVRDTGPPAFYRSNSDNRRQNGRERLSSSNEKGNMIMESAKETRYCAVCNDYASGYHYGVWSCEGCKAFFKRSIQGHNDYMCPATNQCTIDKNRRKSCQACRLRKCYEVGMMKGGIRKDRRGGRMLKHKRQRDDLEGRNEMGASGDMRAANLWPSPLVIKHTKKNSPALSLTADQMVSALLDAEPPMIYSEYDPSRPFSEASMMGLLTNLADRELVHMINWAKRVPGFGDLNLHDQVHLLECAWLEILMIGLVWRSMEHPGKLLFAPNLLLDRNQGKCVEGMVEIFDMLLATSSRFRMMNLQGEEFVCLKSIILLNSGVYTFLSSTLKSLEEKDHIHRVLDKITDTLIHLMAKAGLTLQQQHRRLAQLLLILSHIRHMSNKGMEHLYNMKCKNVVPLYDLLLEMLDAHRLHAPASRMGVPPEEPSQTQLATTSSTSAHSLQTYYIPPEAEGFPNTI
Description: Uterine wet weight in ovariectomized mice after 4 weeks of subcutaneous administration at 4 umol/kg (n=5)
Assay [4] deals with T2, Estrogen receptor (Mus musculus).

Estrogen receptor beta, sequence (Q92731 whole entry): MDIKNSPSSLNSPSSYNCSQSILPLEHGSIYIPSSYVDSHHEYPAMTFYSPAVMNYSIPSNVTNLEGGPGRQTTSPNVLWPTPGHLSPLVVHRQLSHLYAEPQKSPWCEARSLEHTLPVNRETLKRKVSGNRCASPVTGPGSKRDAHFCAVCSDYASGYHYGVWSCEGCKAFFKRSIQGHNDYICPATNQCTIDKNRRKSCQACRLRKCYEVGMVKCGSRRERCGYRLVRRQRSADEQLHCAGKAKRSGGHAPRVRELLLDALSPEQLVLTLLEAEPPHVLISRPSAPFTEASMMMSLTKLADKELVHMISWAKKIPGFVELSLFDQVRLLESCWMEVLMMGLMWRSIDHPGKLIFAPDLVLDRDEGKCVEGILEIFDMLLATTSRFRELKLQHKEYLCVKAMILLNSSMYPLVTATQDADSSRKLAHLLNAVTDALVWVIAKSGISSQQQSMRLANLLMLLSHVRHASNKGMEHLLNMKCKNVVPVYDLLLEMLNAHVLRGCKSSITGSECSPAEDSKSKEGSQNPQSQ

One may read the IC50 as the concentration that gives 50% inhibition. Low values mean higher potency, high ones lower potency. For `Oc1ccc2c(c1)sc1c3ccccc3n(Cc3ccc(OCCN4CCOCC4)cc3)c21`, the results for the concentration for half-maximal inhibition (IC50) in assay [1] and in assay [2] were 215 nM and 126 nM, respectively. Further, the Wet weight in assay [3] amounted to 27 mg. The molecule also registered a BMD in assay [4] of 455 mg/cm3.

With `Oc1ccc2c(c1)sc1c3ccccc3n(Cc3ccc(OCCN4CCCCCC4)cc3)c21`, the concentration for half-maximal inhibition (IC50) in assay [1] is 16.6 nM; in assay [2], 18 nM. The same molecule registered a Wet weight in assay [3] of 28.5 mg. This molecule also gave a BMD in assay [4] of 444 mg/cm3.

Consider `Oc1ccc2c(c1)sc1c3ccccc3n(Cc3ccc(OCCN4CCCCC4)cc3)c21`, for which the results for the half-inhibitory concentration (IC50) in assay [1] and in assay [2] were 35 nM and 39 nM, respectively. Moreover, in assay [3], the Wet weight is 34 mg. The BMD in assay [4] came to 436 mg/cm3.

On to `CN(C)CCOc1ccc(Cn2c3ccccc3c3sc4cc(O)ccc4c32)cc1`, for which the IC50 in assay [1] was found to be 45.6 nM; in assay [2] it was 51.4 nM. In addition, the Wet weight in assay [3] turned out to be 28.2 mg. The BMD in assay [4] came out at 474 mg/cm3.

`Oc1ccc2c(c1)sc1c3cc(O)ccc3n(Cc3ccc(OCCN4CCOCC4)cc3)c21`: the results for the half-inhibitory concentration (IC50) in assay [1] and in assay [2] were 21.4 nM and 10 nM, respectively. The molecule also yielded a Wet weight in assay [3] of 26.3 mg. In assay [4], the BMD came to 470 mg/cm3.

Consider `CCN(CC)CCOc1ccc(Cn2c3ccccc3c3sc4cc(O)ccc4c32)cc1`, for which the results for the IC50 in assay [1] and in assay [2] were 25 nM and 57.4 nM, respectively. The Wet weight in assay [3] amounted to 34.9 mg. In assay [4], this molecule showed a BMD of 448 mg/cm3.

As to `Oc1ccc2c(c1)sc1c3cc(O)ccc3n(Cc3ccc(OCCN4CCCCC4)cc3)c21`, the IC50 came out at 11 nM in assay [1] and 2.84 nM in assay [2]. The Wet weight in assay [3] stood at 44.2 mg. In addition, the BMD in assay [4] stood at 548 mg/cm3.

Take `CN(C)CCOc1ccc(Cn2c3ccc(O)cc3c3sc4cc(O)ccc4c32)cc1`: the IC50 in assay [1] worked out at 31 nM; in assay [2], 18 nM. This molecule also had a Wet weight in assay [3] of 26.2 mg. This molecule showed a BMD in assay [4] of 480 mg/cm3.

For `Oc1ccc2c(c1)sc1c3ccccc3n(Cc3ccc(OCCN4CCCC4)cc3)c21`, the IC50 was 53.9 nM in assay [1] and 27.2 nM in assay [2]. Also, the Wet weight in assay [3] came out at 27.6 mg. The same molecule came in with a BMD in assay [4] of 505 mg/cm3.

Take `Oc1ccc2c(c1)sc1c3cc(O)ccc3n(Cc3ccc(OCCN4CCCCCC4)cc3)c21`: the 50% inhibitory concentration (IC50) in assay [1] amounted to 7.26 nM; in assay [2] it was 3.34 nM. The Wet weight in assay [3] stood at 44.2 mg. The BMD in assay [4] was 534 mg/cm3.

For the molecule `Oc1ccc2c(c1)sc1c3cc(O)ccc3n(Cc3ccc(OCCN4CCCC4)cc3)c21`, the IC50 in assay [1] is 20.2 nM; in assay [2], 6 nM. The molecule further showed a Wet weight in assay [3] of 30.7 mg. The BMD in assay [4] is 469 mg/cm3.

In the case of `CCN(CC)CCOc1ccc(Cn2c3ccc(O)cc3c3sc4cc(O)ccc4c32)cc1`, the half-inhibitory concentration (IC50) in assay [1] is 16.4 nM; in assay [2], 31.2 nM. Moreover, the Wet weight in assay [3] came out at 37.7 mg. This molecule also registered a BMD in assay [4] of 479 mg/cm3.
